The test deals with T1, Muscarinic acetylcholine receptor M2 (Rattus norvegicus, UniProt P10980).
T1 sequence (P10980 whole entry): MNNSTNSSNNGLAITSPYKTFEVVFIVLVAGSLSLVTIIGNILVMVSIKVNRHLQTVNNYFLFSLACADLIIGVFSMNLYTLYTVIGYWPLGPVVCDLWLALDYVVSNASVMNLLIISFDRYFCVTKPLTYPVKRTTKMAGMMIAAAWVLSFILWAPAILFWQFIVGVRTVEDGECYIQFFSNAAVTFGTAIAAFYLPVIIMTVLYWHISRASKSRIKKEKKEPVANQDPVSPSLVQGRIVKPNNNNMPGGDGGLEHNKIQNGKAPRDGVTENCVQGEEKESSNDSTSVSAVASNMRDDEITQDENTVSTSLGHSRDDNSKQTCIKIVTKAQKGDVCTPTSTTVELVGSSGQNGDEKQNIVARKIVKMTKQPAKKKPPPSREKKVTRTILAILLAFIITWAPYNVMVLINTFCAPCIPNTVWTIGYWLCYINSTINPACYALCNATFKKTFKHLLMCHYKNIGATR

By Ki is commonly meant the dissociation constant of the complex between target and ligand, obtained from inhibition or displacement. In turn, `C[C@H]1OC(=O)C2C[C@H]3CCCC[C@@H]3[C@@H](/C=C/[C@@H]3CCC[C@H](C)N3C)C21` (stereo partly specified) [HIMBACINE] displayed an inhibitory constant (Ki) of 10.2 nM.

The values are drawn from BindingDB's records for doi:10.1016/0024-3205(90)90472-4 (University of Arizona, 1990).
